Test results reported in patent US8476298B2 (Exelixis, Inc., priority 2003, dated 2013).
pIC50: −log10 of the molar value.

Assays:
[1] = target: T1, KDR (baculovirus expressed human KDR kinase domain D807-V1356) (Homo sapiens, UniProt P35968); test: biochemical;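 also: Luciferase-coupled chemiluminescent kinase assay, activity read as percent ATP left after 4 h reaction at ambient temperature, ATP near KM, 10-point dose-response in 384-well plates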
T1 construct: human KDR kinase domain D807-V1356; host or cells: baculovirus expression

[2] = target: T2, c-Met (baculovirus expressed human c-Met kinase domain P948-S1343) (Homo sapiens, UniProt P08581); test: c-Met Luciferase-Coupled Chemiluminescent Kinase assay (LCCA); assay type: biochemical;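 also: kinase activity read as percent ATP left after reaction, by luciferase-luciferin chemiluminescence, with 1 µM ATP and 1 µM poly-EY substrate, 2 h at ambient temperature, 10-point dose-response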
T2 construct: human c-Met kinase domain P948-S1343; host or cells: baculovirus expression

[3] = target: T3, Flt-3 (baculovirus expressed human Flt-3 kinase domain R571-S993) (Homo sapiens, UniProt P36888); test: biochemical; conditions: read-out: flt3 IC50;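 also: Luciferase-coupled chemiluminescent kinase assay, activity read as percent ATP left after a 3 h reaction at room temperature, ATP near KM, 10-point dose-response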
T3 construct: human Flt-3 kinase domain R571-S993; host or cells: baculovirus expression
T3 sequence (P36888 571-993): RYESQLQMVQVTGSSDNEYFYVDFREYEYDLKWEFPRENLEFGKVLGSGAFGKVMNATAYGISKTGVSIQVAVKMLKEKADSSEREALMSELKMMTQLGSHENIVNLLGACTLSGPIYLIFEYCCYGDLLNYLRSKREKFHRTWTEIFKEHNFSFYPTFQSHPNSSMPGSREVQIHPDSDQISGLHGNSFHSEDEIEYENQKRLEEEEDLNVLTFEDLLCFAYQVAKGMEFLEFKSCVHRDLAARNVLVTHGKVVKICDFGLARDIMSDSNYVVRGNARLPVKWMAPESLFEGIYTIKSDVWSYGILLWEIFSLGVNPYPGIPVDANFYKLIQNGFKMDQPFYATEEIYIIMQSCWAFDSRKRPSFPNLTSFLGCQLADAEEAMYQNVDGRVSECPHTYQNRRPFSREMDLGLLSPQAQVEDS

T1 sequence (P35968 807-1356): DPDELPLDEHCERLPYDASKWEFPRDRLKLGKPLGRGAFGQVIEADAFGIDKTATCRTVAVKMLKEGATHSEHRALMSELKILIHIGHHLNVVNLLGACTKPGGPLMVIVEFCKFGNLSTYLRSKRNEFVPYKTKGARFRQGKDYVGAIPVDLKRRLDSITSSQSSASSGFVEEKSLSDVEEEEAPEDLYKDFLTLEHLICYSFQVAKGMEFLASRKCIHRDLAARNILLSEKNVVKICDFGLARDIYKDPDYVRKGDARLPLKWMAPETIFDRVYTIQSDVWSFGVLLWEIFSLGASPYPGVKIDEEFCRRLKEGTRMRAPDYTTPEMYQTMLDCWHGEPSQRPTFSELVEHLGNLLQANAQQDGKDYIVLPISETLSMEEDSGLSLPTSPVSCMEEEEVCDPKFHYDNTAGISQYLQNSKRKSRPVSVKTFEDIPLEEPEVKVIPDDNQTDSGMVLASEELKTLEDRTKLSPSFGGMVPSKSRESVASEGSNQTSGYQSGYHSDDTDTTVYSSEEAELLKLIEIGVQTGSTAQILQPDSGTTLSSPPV
T2 sequence (P08581 1011-1343 limits assumed): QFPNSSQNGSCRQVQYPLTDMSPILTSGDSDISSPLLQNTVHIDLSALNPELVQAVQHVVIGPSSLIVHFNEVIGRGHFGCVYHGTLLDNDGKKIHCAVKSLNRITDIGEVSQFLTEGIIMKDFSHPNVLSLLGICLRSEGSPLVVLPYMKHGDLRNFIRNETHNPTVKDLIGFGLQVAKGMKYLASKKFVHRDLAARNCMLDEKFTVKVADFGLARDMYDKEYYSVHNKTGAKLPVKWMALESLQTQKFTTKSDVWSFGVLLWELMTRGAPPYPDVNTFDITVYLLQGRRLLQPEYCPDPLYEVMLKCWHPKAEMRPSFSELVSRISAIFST

| SMILES | pIC50 [1] | pIC50 [2] | pIC50 [3] |
| --- | --- | --- | --- |
| CCN(CC)CCCOc1cc2nccc(Oc3ccc(NC(=O)[C@@]4(C(=O)Nc5ccc(F)cc5)[C@H](C)[C@@H]4C)cc3F)c2cc1OC [Example 374, (1r,2R,3S)-N-(4-{[7-{[3-(diethylamino)propyl]oxy}-6-(methyloxy)quinolin-4-yl]oxy}-3-fluorophenyl)-N′-(4-fluorophenyl)-2,3-dimethylcyclopropane-1,1-dicarboxamide] | 6.30 to 7.30 | > 7.30 | 6.30 to 7.30 |
| CCN(CC)CCOc1cc2nccc(Oc3ccc(NC(=O)[C@@]4(C(=O)Nc5ccc(F)cc5)[C@H](C)[C@@H]4C)cc3F)c2cc1OC [Example 376, (1r,2R,3S)-N-(4-{[7-{[2-(diethylamino)ethyl]oxy}-6-(methyloxy)quinolin-4-yl]oxy}-3-fluorophenyl)-N′-(4-fluorophenyl)-2,3-dimethylcyclopropane-1,1-dicarboxamide] | 6.30 to 7.30 | > 7.30 | 6.30 to 7.30 |
| CCN(CC)CCOc1cc2ncnc(Oc3ccc(NC(=O)C4(C(=O)Nc5ccc(F)cc5)CC4(C)C)cc3F)c2cc1OC (stereo not drawn) [Example 378, N-(4-{[7-{[2-(diethylamino)ethyl]oxy}-6-(methyloxy)quinazolin-4-yl]oxy}-3-fluorophenyl)-N′-(4-fluorophenyl)-2,2-dimethylcyclopropane-1,1-dicarboxamide] | 6.30 to 7.30 | > 7.30 | 5.30 to 6.30 |
| CCN(CC)CCCOc1cc2nccc(Oc3ccc(NC(=O)C4(C(=O)Nc5ccc(F)cc5)CCC4)cc3F)c2cc1OC [Example 384, N-(4-{[7-{[3-(diethylamino)propyl]oxy}-6-(methyloxy)quinolin-4-yl]oxy}-3-fluorophenyl)-N′-(4-fluorophenyl)cyclobutane-1,1-dicarboxamide] | > 7.30 | > 7.30 | 5.30 to 6.30 |
| COc1cc2c(Oc3ccc(NC(=O)C4(C(=O)Nc5ccc(F)cc5)CCC4)cc3F)ccnc2cc1OCCCN1CCN(C)CC1 [Example 385, N-{3-fluoro-4-[(6-(methyloxy)-7-{[3-(4-methylpiperazin-1-yl)propyl]oxy}quinolin-4-yl)oxy]phenyl}-N′-(4-fluorophenyl)cyclobutane-1,1-dicarboxamide] | > 7.30 | > 7.30 | 5.30 to 6.30 |
| CCN(CC)CCCOc1cc2ncnc(Oc3ccc(NC(=O)[C@]4(C(=O)Nc5ccc(F)cc5)C[C@H]4C)cc3F)c2cc1OC [Example 386, (1R,2R)-N-(4-{[7-{[3-(diethylamino)propyl]oxy}-6-(methyloxy)quinazolin-4-yl]oxy}-3-fluorophenyl)-N′-(4-fluorophenyl)-2-methylcyclopropane-1,1-dicarboxamide] | > 7.30 | > 7.30 | > 7.30 |
| COc1cc2c(Oc3ccc(NC(=O)[C@]4(C(=O)Nc5ccc(F)cc5)C[C@H]4C)cc3F)ncnc2cc1OCCCN1CCN(C)CC1 [Example 387, (1R,2R)-N-{3-fluoro-4-[(6-(methyloxy)-7-{[3-(4-methylpiperazin-1-yl)propyl]oxy}quinazolin-4-yl)oxy]phenyl}-N′-(4-fluorophenyl)-2-methylcyclopropane-1,1-dicarboxamide] | > 7.30 | > 7.30 | > 7.30 |
| CCN(CC)CCOc1cc2ncnc(Oc3ccc(NC(=O)C4(C(=O)Nc5ccc(F)cc5)[C@H](C)[C@H]4C)cc3F)c2cc1OC (stereo partly drawn) [Example 388, (2R,3R)-N-(4-{[7-{[2-(diethylamino)ethyl]oxy}-6-(methyloxy)quinazolin-4-yl]oxy}-3-fluorophenyl)-N′-(4-fluorophenyl)-2,3-dimethylcyclopropane-1,1-dicarboxamide] | > 7.30 | 6.30 to 7.30 | 5.30 to 6.30 |
| CCN(CC)CCCOc1cc2ncnc(Oc3ccc(NC(=O)C4(C(=O)Nc5ccc(F)cc5)[C@H](C)[C@H]4C)cc3F)c2cc1OC (stereo partly drawn) [Example 389, (2R,3R)-N-(4-{[7-{[3-(diethylamino)propyl]oxy}-6-(methyloxy)quinazolin-4-yl]oxy}-3-fluorophenyl)-N′-(4-fluorophenyl)-2,3-dimethylcyclopropane-1,1-dicarboxamide] | > 7.30 | > 7.30 | 6.30 to 7.30 |
| COc1cc2c(Oc3ccc(NC(=O)[C@]4(C(=O)Nc5ccc(F)cc5)C[C@H]4C)cc3F)ncnc2cc1OCCCN1CCNCC1 [Example 390, (1R,2R)-N-[3-fluoro-4-({6-(methyloxy)-7-[(3-piperazin-1-ylpropyl)oxy]quinazolin-4-yl}oxy)phenyl]-N′-(4-fluorophenyl)-2-methylcyclopropane-1,1-dicarboxamide] | > 7.30 | > 7.30 | > 7.30 |
| CCN(CC)CCOc1cc2nccc(Oc3ccc(NC(=O)C4(C(=O)Nc5ccc(F)cc5)[C@H](C)[C@H]4C)cc3F)c2cc1OC (stereo partly drawn) [Example 391, (2R,3R)-N-(4-{[7-{[2-(diethylamino)ethyl]oxy}-6-(methyloxy)quinolin-4-yl]oxy}-3-fluorophenyl)-N′-(4-fluorophenyl)-2,3-dimethylcyclopropane-1,1-dicarboxamide] | > 7.30 | > 7.30 | 6.30 to 7.30 |
| COc1cc2nccc(Oc3ccc(NC(=O)C4(C(=O)NCc5ccc(F)cc5)CC4)cc3)c2cc1OC [Example 392, N-(4-{[6,7-bis(methyloxy)quinolin-4-yl]oxy}phenyl)-N′-[(4-fluorophenyl)methyl]cyclopropane-1,1-dicarboxamide] | 6.30 to 7.30 | 6.30 to 7.30 | > 7.30 |

The remaining lines, values ahead:

| pIC50 [1] | pIC50 [2] | pIC50 [3] | SMILES |
| --- | --- | --- | --- |
| > 7.30 | > 7.30 | 6.30 to 7.30 | CCN(CC)CCCOc1cc2nccc(Oc3ccc(NC(=O)C4(C(=O)Nc5ccc(F)cc5)CC4(C)C)cc3F)c2cc1OC (stereo not drawn) [Example 372, N-(4-{[7-{[3-(diethylamino)propyl]oxy}-6-(methyloxy)quinolin-4-yl]oxy}-3-fluorophenyl)-N′-(4-fluorophenyl)-2,2-dimethylcyclopropane-1,1-dicarboxamide] |
| > 7.30 | > 7.30 | 5.30 to 6.30 | COc1cc2c(Oc3ccc(NC(=O)C4(C(=O)Nc5ccc(F)cc5)CC4(C)C)cc3F)ncnc2cc1OCCCN1CCOCC1 (stereo not drawn) [Example 373, N-[3-fluoro-4-({6-(methyloxy)-7-[(3-morpholin-4-ylpropyl)oxy]quinazolin-4-yl}oxy)phenyl]-N′-(4-fluorophenyl)-2,2-dimethylcyclopropane-1,1-dicarboxamide] |
| > 7.30 | > 7.30 | 5.30 to 6.30 | CCN(CC)CCOc1cc2nccc(Oc3ccc(NC(=O)C4(C(=O)Nc5ccc(F)cc5)CC4(C)C)cc3F)c2cc1OC (stereo not drawn) [Example 375, N-(4-{[7-{[2-(diethylamino)ethyl]oxy}-6-(methyloxy)quinolin-4-yl]oxy}-3-fluorophenyl)-N′-(4-fluorophenyl)-2,2-dimethylcyclopropane-1,1-dicarboxamide] |
| > 7.30 | > 7.30 | 6.30 to 7.30 | COc1cc2c(Oc3ccc(NC(=O)C4(C(=O)Nc5ccc(F)cc5)CC4(C)C)cc3F)ccnc2cc1OCCCN1CCOCC1 (stereo not drawn) [Example 377, N-[3-fluoro-4-({6-(methyloxy)-7-[(3-morpholin-4-ylpropyl)oxy]quinolin-4-yl}oxy)phenyl]-N′-(4-fluorophenyl)-2,2-dimethylcyclopropane-1,1-dicarboxamide] |
| > 7.30 | > 7.30 | 5.30 to 6.30 | CCN(CC)CCCOc1cc2ncnc(Oc3ccc(NC(=O)C4(C(=O)Nc5ccc(F)cc5)CC4(C)C)cc3F)c2cc1OC (stereo not drawn) [Example 379, N-(4-{[7-{[3-(diethylamino)propyl]oxy}-6-(methyloxy)quinazolin-4-yl]oxy}-3-fluorophenyl)-N′-(4-fluorophenyl)-2,2-dimethylcyclopropane-1,1-dicarboxamide] |
| > 7.30 | > 7.30 | 6.30 to 7.30 | CCN(CC)CCCOc1cc2ncnc(Oc3ccc(NC(=O)C4(C(=O)Nc5ccc(F)cc5)CCC4)cc3F)c2cc1OC [Example 380, N-(4-{[7-{[3-(diethylamino)propyl]oxy}-6-(methyloxy)quinazolin-4-yl]oxy}-3-fluorophenyl)-N′-(4-fluorophenyl)cyclobutane-1,1-dicarboxamide] |
| > 7.30 | > 7.30 | 6.30 to 7.30 | COc1cc2c(Oc3ccc(NC(=O)C4(C(=O)Nc5ccc(F)cc5)CCC4)cc3F)ncnc2cc1OCCCN1CCN(C)CC1 [Example 381, N-{3-fluoro-4-[(6-(methyloxy)-7-{[3-(4-methylpiperazin-1-yl)propyl]oxy}quinazolin-4-yl)oxy]phenyl}-N′-(4-fluorophenyl)cyclobutane-1,1-dicarboxamide] |
| > 7.30 | > 7.30 | 6.30 to 7.30 | COc1cc2c(Oc3ccc(NC(=O)C4(C(=O)Nc5ccc(F)cc5)CCC4)cc3F)ncnc2cc1OCCCN1CCNCC1 [Example 382, N-[3-fluoro-4-({6-(methyloxy)-7-[(3-piperazin-1-ylpropyl)oxy]quinazolin-4-yl}oxy)phenyl]-N′-(4-fluorophenyl)cyclobutane-1,1-dicarboxamide] |
| > 7.30 | > 7.30 | 5.30 to 6.30 | COc1cc2c(Oc3ccc(NC(=O)C4(C(=O)Nc5ccc(F)cc5)[C@H](C)[C@H]4C)cc3F)ncnc2cc1OCCCN1CCOCC1 (stereo partly drawn) [Example 383, (2R,3R)-N-[3-fluoro-4-({6-(methyloxy)-7-[(3-morpholin-4-ylpropyl)oxy]quinazolin-4-yl}oxy)phenyl]-N′-(4-fluorophenyl)-2,3-dimethylcyclopropane-1,1-dicarboxamide] |
